The source made the active and inactive calls. No cut-off for these calls is given here.
Experiments:
[1] = organism: Homo sapiens; test: Stabilization effect on human telomeric DNA assessed as differential melting temperature in the presence of double strand DNA by FRET assay
[2] = organism: Homo sapiens; test: Stabilization effect on human telomeric DNA assessed as differential melting temperature by FRET assay
[3] = Binding affinity to hairpin DNA; parameters: species or system Homo sapiens
[4] = organism: Homo sapiens; test: Stabilization effect on human telomeric DNA assessed as differential melting temperature by DSC assay
[5] = Binding affinity to human telomeric DNA
[6] = Cell cycle arrest in […] cells assessed as accumulation at Sub G1 phase at 75 uM; format: functional, cell-based; details: Homo sapiens
[7] = Cell cycle arrest in […] cells assessed as accumulation at G1 phase at 75 uM; format: functional, cell-based; details: Homo sapiens
[8] = Cell cycle arrest in […] cells assessed as accumulation at Sub G1 phase at 300 uM; format: functional, cell-based; details: Homo sapiens
[9] = Cytotoxicity against […] cells by MTT assay; format: functional, cell-based; details: Homo sapiens
[10] = Cell cycle arrest in […] cells assessed as accumulation at S phase at 75 uM; format: functional, cell-based; details: Homo sapiens
[11] = Cell cycle arrest in […] cells assessed as accumulation at G2/M phase at 300 uM; format: functional, cell-based; details: Homo sapiens
[12] = Cell cycle arrest in […] cells assessed as accumulation at S phase at 300 uM; format: functional, cell-based; details: Homo sapiens
[13] = Cell cycle arrest in […] cells assessed as accumulation at G1 phase at 300 uM; format: functional, cell-based; details: Homo sapiens
[14] = organism: Homo sapiens; test: Inhibition of telomerase extension activity at 50 uM by PCR based TRAP assay
[15] = Cell cycle arrest in […] cells assessed as accumulation at G2/M phase at 75 uM; format: functional, cell-based; details: Homo sapiens

| Structure (SMILES) | ΔTm [1] | ΔTm [2] | Kd [3] | ΔTm [4] | Kd [5] | Activity [6] | Activity [7] | Activity [8] | IC50 [9] | Activity [10] | Activity [11] | Activity [12] | Activity [13] | Activity [14] | Activity [15] |
| --- | --- | --- | --- | --- | --- | --- | --- | --- | --- | --- | --- | --- | --- | --- | --- |
| NCCC(=O)NCc1cc2oc1CNC(=O)C1=CC=C(CNC(=O)C3=CC=C(CNC2=O)O3)O1 | 7 °C | 10 °C | 700 µM | 3 °C | 21 µM |  |  |  |  |  |  |  |  |  |  |
| NCCC(=O)NCC1=C2CNC(=O)C3=CC=C(CNC(=O)c4cc(CNC(=O)CCN)c(o4)CNC(=O)C4=CC=C(CNC(=O)C(=C1)O2)O4)O3 | 17 °C | 17 °C |  | 9.2 °C | 3.1 µM | 46% | 31.5% | 48.5% | 500 µM | 7% | 4.8% | 4.2% | 41.4% | Active | 11.5% |
| NCc1cc2oc1CNC(=O)C1=CC=C(CNC(=O)C3=CC=C(CNC2=O)O3)O1 | 7 °C | 9 °C | 950 µM | 2 °C | 29 µM |  |  |  |  |  |  |  |  |  |  |
| NCC1=C2CNC(=O)C3=CC=C(CNC(=O)c4cc(CN)c(o4)CNC(=O)C4=CC=C(CNC(=O)C(=C1)O2)O4)O3 | 12 °C | 12 °C |  | 6.6 °C | 14.5 µM | 47% | 23.5% | 49% | 500 µM | 8.8% | 5.5% | 4.8% | 39% | Active | 18.8% |
